Read-outs that look alike come from different tables or passages of the source.
Assays:
[1] = test system: human P-glycoprotein HEK cells (HEK-P-gp); test: H3K27me3 immunocytochemistry assay in P-gp expressing HEK293T cells, with or without elacridar; format: cell-based; conditions: Homo sapiens, 4 days compound treatment
Protocol: A plasmid encoding the human ABCB1 gene under the control of a CMV promoter was purchased from Origene (Cat #RC216080). The HEK293T cells were purchased from ATCC (Cat #CRL-3216) and were cultured for expansion in the recommended conditions. The HEK293T cells were transfected with 2 ug of the pCMV-ABCB1 plasmid using Lipofectamine 3000 following recommendations from the manufacturer (ThermoFisher Scientific, Cat #L3000008). After 24 h, cells were dissociated, and 5000 cells were seeded on a 10 cm tissue culture dish. On the next day, fresh media containing 5 nM Vinblastine (Sigma, Cat #V1377) was added, and media containing compound was replenished every 72 h. After surviving cells reached confluency, cells were passaged, and lines were maintained in the presence of 2.5 nM Vinblastine until further characterization.
P-gp expressing HEK293T, HUDEP2, and Human Mobilized Peripheral Blood Primary CD34+ cells were cultured for use in an H3K27me3 immunocytochemistry assay. HUDEP2 and Human Mobilized Peripheral Blood Primary CD34+ cells were cultured for use in an HbF immunocytochemistry assay. P-gp expressing HEK293T cells were maintained and passaged every 3-4 days by plating 300,000 viable cells in a T-25 culture flask containing 6 mLs of 293 Passaging Media comprised of DMEM (ThermoFisher #10566016), 10% fetal bovine serum (ThermoFisher #A3160502), 1% penicillin-streptomycin (ThermoFisher #15140122), and 2.5 nM Vinblastine (Sigma #V1377). To evaluate the inhibitory effect of the compounds of the present disclosure and their brain penetrant properties via P-gp mediated efflux, the H3K27me3 immunocytochemistry assay was conducted in the presence or absence of 250 nM of the P-gp inhibitor, elacridar. Poor brain penetrant compounds were expected to show higher potencies in the presence of Elacridar. However, brain penetrant compounds would show similar potencies irrespective of whether Elacridar is present or not. In these experiments plates without elacridar were seeded with P-gp expressing HEK293T cells at 1000 viable cells per well in a poly-d-lysine coated 384-well plate (Corning Cat #356697) in 45 μL of 293 Assay Media comprised of DMEM (ThermoFisher #10566016), 10% fetal bovine serum (ThermoFisher #A3160502), 1% penicillin-streptomycin (ThermoFisher #15140122). A replicate set of plates were seeded under the same conditions with 45 μL of 293 Assay Media supplemented with 250 nM of Elacridar to inhibit P-gp activity. Compounds were serially diluted at 10× concentration in 293 Media, and 5 μL transferred to their respective wells on both sets of plates for a total volume of 50 μL per well. The compound treated HEK293T cells were allowed to incubate for 4 days at 37° C., 85% relative humidity, and 5% CO2 before proceeding to ICC Fix and Stain protocol.
The Fix and Stain Protocol was the same for HEK293T, HUDEP2, and Primary CD34+ cell assays except the specific primary and secondary antibodies used for detection. Following 4 days of compound treatment, the respective plates were washed once with 25 μL of PBS (ThermoFisher #10010023) and fixed with 25 μL of 4% paraformaldehyde (ThermoFisher #28908) for 10 minutes at room temperature. The plates were then washed three times with 25 μL of PBS. Subsequent to that, the cells were permeabilized and blocked for 1 hour at room temperature in 25 μL of Perm/Block buffer comprised of IX PBS, 1% bovine serum albumin (ThermoFisher #A3294), 10% fetal bovine serum (ThermoFisher #A3160502), 0.3M glycine (Sigma #G7126), and 0.1% tween-20 (Sigma #P7949). This was followed by additional washing (three times) of the plates with 25 μL of 0.1% tween in PBS.
For the H3K27me3 assay, the cells were incubated overnight at 4° C. with 25 μL of H3K27me3 Primary Antibody (Cell Signaling #9733) diluted 1:200 in 0.1% tween-20 in PBS. […]

[2] = molecular target: T1, biotinylated AVI-tagged EED (76-441) (Homo sapiens, UniProt O75530); test: EED binding SPR assay; conditions: 1:1 binding model; read-out: KD, equilibrium dissociation constant as measured by surface plasmon resonance (SPR)
T1 construct: GST (N, cleaved yes); made in house; host or cells: E. coli BL21(DE3), co-expressed with pGro7
T1 sequence (O75530 76-441 limits assumed): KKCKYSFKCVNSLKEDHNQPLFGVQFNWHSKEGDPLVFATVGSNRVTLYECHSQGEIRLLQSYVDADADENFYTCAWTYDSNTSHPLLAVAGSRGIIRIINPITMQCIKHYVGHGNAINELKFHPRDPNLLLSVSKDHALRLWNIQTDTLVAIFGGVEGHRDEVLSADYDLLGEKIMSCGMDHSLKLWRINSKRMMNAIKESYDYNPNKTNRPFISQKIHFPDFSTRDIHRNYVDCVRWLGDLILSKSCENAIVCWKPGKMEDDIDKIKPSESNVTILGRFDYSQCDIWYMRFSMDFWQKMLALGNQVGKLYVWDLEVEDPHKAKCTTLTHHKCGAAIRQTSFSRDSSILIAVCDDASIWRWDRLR
Protocol: Biotinylated AVI-tagged EED was produced using standard molecular biology techniques. A pGEX plasmid with a GST-preScission-cleavage-site-AVI-EED(76-441) sequence was placed into E. coli BL21(DE3) cells and co-expressed with pGro7. The E. coli were grown in shaker flasks in LB with ampicillin at 37° C. at 110 rpm to an OD600=0.7. At this time the temperature was lowered to 15° C. and IPTG was added to 0.3 mM. The cells were allowed to express overnight. Cells were then harvested.
For purification, the E. coli cell pellet was lysed into a buffer of 50 mM Tris pH 8.0, 500 mM NaCl, 5% glycerol and 5 mM DTT. The lysate was loaded onto a GSTrap FF column from GE Healthcare. After washing, the bound protein was eluted with 50 mM Tris pH 8.0, 500 mM NaCl, 5% glycerol, 5 mM DTT and 15 mM GSH. The collected fractions were combined and incubated with PreScission enzyme overnight at 4° C. The cleaved protein was then passed through a GSTrap FF column in a buffer of 50 mM Tris pH 8.0, 500 mM NaCl, 5% glycerol and 5 mM DTT. The cleaved protein was confirmed through mass spectrometry. The AVI-EED(76-441) was then buffer exchanged into 50 mM Bicine pH 8.3, 10 mM ATP, 10 mM magnesium acetate and 50 μM D-Biotin. 3 mg of BirA enzyme was added to the system and incubated at 4° C. for 2 hours to biotinylate the AVI-EED(76-441). The biotinylated-AVI-EED(76-441) was then buffer exchanged into 20 mM Tris pH 8.0 and 400 mM NaCl and passed through a size exclusion column of Superdex 200 16/60 Increase. The purified monomeric biotinylated-AVI-EED(76-441) was confirmed through SDS-PAGE, LC-MS and analytical size exclusion chromatography.
All surface plasmon resonance (SPR) assays were performed using a GE Biacore S200 utilizing GE Biotin CAPture chips. Capturing of CAP reagents was performed with a flow rate of 2 μL/min for 90 seconds. For protein capturing, a solution of 50 μg/mL of biotinylated AVI-tagged EED (76-441) in 10 mM HEPES pH 7.4, 150 mM NaCl, 0.05% Tween 20 and 2% DMSO (Running Buffer) was flowed over the chip with a flow rate of 5 μL/min for a contact time of 30 seconds. Final readings were 2200-2400 RU. For compounds, 7 concentrations were made with 3-dilutions using the Running Buffer for a total of 300 μL of each concentration in a 96-well microplate. During the binding experiments, a flow rate of […] was used for an association time of 90 seconds followed by a disassociation time of 180 seconds. The compartment temperature was set at 10° C. with the chip at 25° C. During regeneration the flow rate was set to 30 μL/min for 30 seconds. All fittings were done using a 1:1 binding model.

[3] = HEK293, 96 h, without elacridar, read-out: IC50, inhibitory activity on human P-glycoprotein HEK cells (HEK-P-gp)
[4] = HEK293, with 250 nM elacridar, read-out: IC50, inhibitory activity on human P-glycoprotein HEK cells (HEK-P-gp) pretreated with elacridar

Compound: Cc1ncc(-c2cc3c(n4cnnc24)NCc2c(F)ccc4c2[C@@H](CO4)CO3)cc1N [Compound 179, (S)-5-(12-fluoro-7a,8,13,14-tetrahydro-7H-[1,2,4]triazolo[4′,3′:1,6]pyrido[3,2-b]benzofuro[4,3-fg][1,4]oxazonin-4-yl)-2-methylpyridin-3-amine]
- IC50 [1, 3]: > 500 nM
- IC50 [1, 4]: 100 to 500 nM
- Kd [2]: < 2.5 nM

Compound: Cc1nc(O)ccc1-c1cc2c(n3cnnc13)NCc1c(F)ccc3c1[C@@H](CO3)CO2 [Compound 187, (S)-5-(12-fluoro-7a,8,13,14-tetrahydro-7H-[1,2,4]triazolo[4′,3′:1,6]pyrido[3,2-b]benzofuro[4,3-fg][1,4]oxazonin-4-yl)-6-methylpyridin-2-ol]
- IC50 [1, 3]: > 500 nM
- IC50 [1, 4]: > 500 nM
- Kd [2]: < 2.5 nM

Compound: Fc1ccc2c3c1CNc1c(cc(-c4cnco4)c4nncn14)OC[C@@H]3CO2 [Compound 188, (S)-12-fluoro-4-(oxazol-5-yl)-7a,8,13,14-tetrahydro-7H-[1,2,4]triazolo[4′,3′:1,6]pyrido[3,2-b]benzofuro[4,3-fg][1,4]oxazonine]
- IC50 [1, 3]: 100 to 500 nM
- IC50 [1, 4]: 100 to 500 nM
- Kd [2]: < 2.5 nM

Compound: Cc1nc(C2CC2)ncc1-c1cc2c(n3cnnc13)NCc1c(F)ccc3c1[C@@H](CO3)CO2 [Compound 190, (S)-4-(2-cyclopropyl-4-methylpyrimidin-5-yl)-12-fluoro-7a,8,13,14-tetrahydro-7H-[1,2,4]triazolo[4′,3′:1,6]pyrido[3,2-b]benzofuro[4,3-fg][1,4]oxazonine]
- IC50 [1, 3]: < 25 nM
- IC50 [1, 4]: < 25 nM
- Kd [2]: < 2.5 nM

Compound: CNC(=O)CCc1ccc(-c2cc3c(n4cnnc24)NCc2c(F)ccc4c2C(CO4)CO3)c(C)n1 [Compound 191, (S)-3-(5-(12-fluoro-7a,8,13,14-tetrahydro-7H-[1,2,4]triazolo[4′,3′:1,6]pyrido[3,2-b]benzofuro[4,3-fg][1,4]oxazonin-4-yl)-6-methylpyridin-2-yl)-N-methylpropanamide]
- IC50 [1, 3]: 50 to 100 nM
- IC50 [1, 4]: 100 to 500 nM
- Kd [2]: < 2.5 nM

Compound: Cc1nccc(O)c1-c1cc2c(n3cnnc13)NCc1c(F)ccc3c1C(CO3)CO2 [Compound 192, (S)-3-(12-fluoro-7a,8,13,14-tetrahydro-7H-[1,2,4]triazolo[4′,3′:1,6]pyrido[3,2-b]benzofuro[4,3-fg][1,4]oxazonin-4-yl)-2-methylpyridin-4-ol]
- IC50 [1, 3]: > 500 nM
- IC50 [1, 4]: > 500 nM
- Kd [2]: 10 to 50 nM

Compound: CC(=O)N1CC=C(c2cc3c(n4cnnc24)NCc2c(F)ccc4c2[C@@H](CO4)CO3)CC1 [Compound 193, (S)-1-(4-(12-fluoro-7a,8,13,14-tetrahydro-7H-[1,2,4]triazolo[4′,3′:1,6]pyrido[3,2-b]benzofuro[4,3-fg][1,4]oxazonin-4-yl)-3,6-dihydropyridin-1(2H)-yl)ethan-1-one]
- IC50 [1, 3]: 25 to 50 nM
- IC50 [1, 4]: 50 to 100 nM
- Kd [2]: < 2.5 nM

Compound: Cc1ncc(O)cc1-c1cc2c(n3cnnc13)NCc1c(F)ccc3c1[C@@H](CO3)CO2 [Compound 194, (S)-5-(12-fluoro-7a,8,13,14-tetrahydro-7H-[1,2,4]triazolo[4′,3′:1,6]pyrido[3,2-b]benzofuro[4,3-fg][1,4]oxazonin-4-yl)-6-methylpyridin-3-ol]
- IC50 [1, 3]: 50 to 100 nM
- IC50 [1, 4]: 50 to 100 nM
- Kd [2]: < 2.5 nM

Compound: OCc1ncccc1-c1cc2c(n3cnnc13)NCc1c(F)ccc3c1C(CO3)CO2 [Compound 195, (S)-(3-(12-fluoro-7a,8,13,14-tetrahydro-7H-[1,2,4]triazolo[4′,3′:1,6]pyrido[3,2-b]benzofuro[4,3-fg][1,4]oxazonin-4-yl)pyridin-2-yl)methanol]
- IC50 [1, 3]: < 25 nM
- IC50 [1, 4]: 50 to 100 nM
- Kd [2]: < 2.5 nM

Compound: Cn1ncc(O)c1-c1cc2c(n3cnnc13)NCc1c(F)ccc3c1C(CO3)CO2 [Compound 196, (S)-5-(12-fluoro-7a,8,13,14-tetrahydro-7H-[1,2,4]triazolo[4′,3′:1,6]pyrido[3,2-b]benzofuro[4,3-fg][1,4]oxazonin-4-yl)-1-methyl-1H-pyrazol-4-ol]
- IC50 [1, 3]: 25 to 50 nM
- IC50 [1, 4]: 50 to 100 nM
- Kd [2]: < 2.5 nM
